Test results reported in ChEMBL document CHEMBL1132161, “Therapeutic potential and strategies for inhibiting tumor necrosis factor-alpha” (J Med Chem, 1999).

Test: Compound was tested for the inhibition of IL1-beta and interleukin-6-production
Format: functional

IC50: 9 µM
SMILES: Nc1ncnc2c1ncn2[C@@H]1CC[C@@H](O)C1
